The text below walks through data of publication PMC12846815, “Structural basis for iterative methylation by a cobalamin-dependent radical S-adenosylmethionine enzyme in cystobactamids biosynthesis” (Proceedings of the National Academy of Sciences of the …, 2026).

The target of experiment [1] is T1, ccCysS (Corallococcus sp. CA054B, UniProt A0A3A8HCN5).
T1 construct: gene D7V80_23740; codon-optimised gene in pSUMO, N-terminal SUMO tag cleaved with Ulp1; E. coli BL21(DE3) with pDB1282 and pBAD42-BtuCEDFB; monomer; TLS groups span residues 5 to 704
T1 sequence (A0A3A8HCN5 1-645): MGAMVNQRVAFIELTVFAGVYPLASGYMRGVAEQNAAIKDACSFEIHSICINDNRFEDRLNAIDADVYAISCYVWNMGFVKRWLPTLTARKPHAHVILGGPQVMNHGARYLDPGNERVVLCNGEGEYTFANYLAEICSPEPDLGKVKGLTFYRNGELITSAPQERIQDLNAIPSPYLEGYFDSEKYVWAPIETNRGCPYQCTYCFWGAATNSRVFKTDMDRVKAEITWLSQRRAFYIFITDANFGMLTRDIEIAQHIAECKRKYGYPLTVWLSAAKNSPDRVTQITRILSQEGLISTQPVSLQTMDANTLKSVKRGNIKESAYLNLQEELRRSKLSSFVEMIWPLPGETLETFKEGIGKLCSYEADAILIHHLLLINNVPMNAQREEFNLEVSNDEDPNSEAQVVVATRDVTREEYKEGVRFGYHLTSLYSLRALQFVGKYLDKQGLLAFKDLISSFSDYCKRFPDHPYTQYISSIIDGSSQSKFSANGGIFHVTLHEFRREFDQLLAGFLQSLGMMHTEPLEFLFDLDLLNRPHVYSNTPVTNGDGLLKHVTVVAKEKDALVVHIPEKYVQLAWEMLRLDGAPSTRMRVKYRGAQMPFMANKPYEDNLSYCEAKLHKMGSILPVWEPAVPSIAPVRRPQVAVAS
In words: X-ray crystal structure, […] Å. Format: binding. The following applies: active site, one conformer; with Met, 5′dA, Cbl and [Fe4S4]; anoxic, pH 6.0.

Experiment [2] has as its target T2, ccCysS (Corallococcus sp. CA054B, UniProt A0A3A8HCN5, W271A).
T2 construct: gene D7V80_23740; codon-optimised gene in pSUMO, N-terminal SUMO tag cleaved with Ulp1; E. coli BL21(DE3) with pDB1282 and pBAD42-BtuCEDFB; monomer; TLS groups span residues 5 to 704
T2 sequence (A0A3A8HCN5 1-645 W271A): T1 sequence (A0A3A8HCN5 1-645)
In words: LC-MS product quantification. Format: biochemical. The note with it: 500 µM SAM, 2 mM Ti(III) citrate, pH 7.5, room temperature.

The target of another experiment is T3, cbCysS (Cystobacter sp. Cbv34, UniProt A0A0H4NV78).
T3 construct: gene cysS; codon-optimised gene in pSUMO, N-terminal SUMO tag cleaved with Ulp1; E. coli BL21(DE3) with pDB1282 and pBAD42-BtuCEDFB; monomer
T3 sequence (A0A0H4NV78 1-642): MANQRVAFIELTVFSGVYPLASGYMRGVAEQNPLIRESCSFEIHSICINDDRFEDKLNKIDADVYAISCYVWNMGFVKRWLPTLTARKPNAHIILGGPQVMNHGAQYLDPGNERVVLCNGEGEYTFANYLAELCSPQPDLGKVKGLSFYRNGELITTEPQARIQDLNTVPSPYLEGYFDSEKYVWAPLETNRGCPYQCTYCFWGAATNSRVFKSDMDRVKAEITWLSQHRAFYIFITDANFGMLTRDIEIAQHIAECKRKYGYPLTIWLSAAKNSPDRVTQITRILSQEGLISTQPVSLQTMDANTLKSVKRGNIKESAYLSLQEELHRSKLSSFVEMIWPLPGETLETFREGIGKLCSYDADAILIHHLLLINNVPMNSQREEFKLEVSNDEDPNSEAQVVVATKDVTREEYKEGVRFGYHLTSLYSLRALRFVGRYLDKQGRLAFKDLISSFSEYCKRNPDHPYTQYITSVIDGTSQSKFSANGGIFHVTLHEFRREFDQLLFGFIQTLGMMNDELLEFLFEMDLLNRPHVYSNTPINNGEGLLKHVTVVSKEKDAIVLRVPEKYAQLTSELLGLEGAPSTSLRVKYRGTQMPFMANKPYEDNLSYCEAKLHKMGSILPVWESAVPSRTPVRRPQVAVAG
In words: LC-MS product quantification. It is filed as biochemical. The following applies: 500 µM SAM, 2 mM Ti(III) citrate, pH 7.5, room temperature.

The target of experiment [3] is T1, ccCysS. In words: X-ray crystal structure, […] Å. It is filed as binding. The following applies: active site, two conformers; with Met, 5′dA, Cbl and [Fe4S4]; anoxic, pH 6.0.
For experiment [4], the target named is T4, ccCysS (Corallococcus sp. CA054B, UniProt A0A3A8HCN5, F485Y).
T4 construct: gene D7V80_23740; codon-optimised gene in pSUMO, N-terminal SUMO tag cleaved with Ulp1; E. coli BL21(DE3) with pDB1282 and pBAD42-BtuCEDFB; monomer; TLS groups span residues 5 to 704
T4 sequence (A0A3A8HCN5 1-645 F485Y): T1 sequence (A0A3A8HCN5 1-645)
In words: LC-MS product quantification. It is filed as biochemical. The following applies: 500 µM SAM, 2 mM Ti(III) citrate, pH 7.5, room temperature.

The target of experiment [5] is T5, ccCysS (Corallococcus sp. CA054B, UniProt A0A3A8HCN5, F485L).
T5 construct: gene D7V80_23740; codon-optimised gene in pSUMO, N-terminal SUMO tag cleaved with Ulp1; E. coli BL21(DE3) with pDB1282 and pBAD42-BtuCEDFB; monomer; TLS groups span residues 5 to 704
T5 sequence (A0A3A8HCN5 1-645 F485L): T1 sequence (A0A3A8HCN5 1-645)
In words: LC-MS product quantification. It is filed as biochemical. The note with it: 500 µM SAM, 2 mM Ti(III) citrate, pH 7.5, room temperature.

In experiment [6] the target is T6, ccCysS (Corallococcus sp. CA054B, UniProt A0A3A8HCN5, F485W).
T6 construct: gene D7V80_23740; codon-optimised gene in pSUMO, N-terminal SUMO tag cleaved with Ulp1; E. coli BL21(DE3) with pDB1282 and pBAD42-BtuCEDFB; monomer; TLS groups span residues 5 to 704
T6 sequence (A0A3A8HCN5 1-645 F485W): T1 sequence (A0A3A8HCN5 1-645)
In words: LC-MS product quantification. Format: biochemical. The note with it: 500 µM SAM, 2 mM Ti(III) citrate, pH 7.5, room temperature.

Experiment [7] has as its target T1, ccCysS. In words: LC-MS product quantification. It is filed as biochemical. The following applies: 500 µM SAM, 2 mM Ti(III) citrate, pH 7.5, room temperature.

Take `CCOc1cc(C(=O)OCCNC(=O)CCNC(=O)[C@H](O)C(C)(C)CO)ccc1N` [OEt, OEt substrate]: the “X-ray crystal structure, 2.00 Å” value on ccCysS [1] was “Structures with the OMe or OEt substrates have well-defined substrate electron densities”.

Regarding `COc1cc(C(=O)OCCNC(=O)CCNC(=O)[C@H](O)C(C)(C)CO)ccc1N` [OMe, OMe substrate], the LC-MS product quantification entry at ccCysS [2] was “changed to Ala, the variant shows much lower activity across all three methylations”; on cbCysS, “In reactions using the OMe substrate, only the OEt and O^iPr products are detected”. The “X-ray crystal structure, 1.75 Å” value at ccCysS [3] is on record as “Structures with the OMe or OEt substrates have well-defined substrate electron densities”.

For `CC(C)Oc1cc(C(=O)OCCNC(=O)CCNC(=O)[C@H](O)C(C)(C)CO)ccc1N` [OiPr, O^iPr substrate], the LC-MS product quantification result on ccCysS [4] is “F485Y and F485W yield fewer overall methylated products”; at cbCysS, “The O^sBu and O^tBu products are observed only when starting from the O^iPr substrate”; on ccCysS [5], “The F485L variant, less bulky than wild-type (WT) ccCysS, produces methylated products in roughly equal amounts”; at ccCysS [6], “F485Y and F485W yield fewer overall methylated products”; at ccCysS [7] it was “The O^sBu and O^tBu products are observed only when starting from the O^iPr substrate”.
